Data: PubChem BioAssay AID2060901 (Molecular Pharmacology Branch, DTP, NCI, 2025)
One block for each molecule: values may come before it.

System: 422866-222-R5-J1-PDC complex spheroids viability
Assay: Anticancer human tumor 422866-222-R5-J1-PDC patient-derived pancreatic adenocarcinoma cell line growth inhibition [RAS]
Details: for viability, T/C: stronger effect = lower value
Summary of the method: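 Multi-cell-type spheroids: tumor cells plus HUVEC endothelial cells and mesenchymal stem cells. RAS-pathway inhibitors were combined with targeted agents, each dosed in half-log steps down from clinical Cmax, or from 10 microM when Cmax was unknown.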
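Note: spheroids exposed to compounds for 7 days.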
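Throughout, for viability, T/C: 100% = DMSO vehicle control viability.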

IC50 (curve of first compound, second compound 0.000949 µM): < 3.16 nM
IC50 (curve of first compound, second compound 0.003 µM): < 3.16 nM
IC50 (curve of first compound, second compound 0.00949 µM): < 3.16 nM
IC50 (curve of first compound, second compound 0.03 µM): < 3.16 nM
IC50 (curve of first compound, second compound 0.0949 µM): < 3.16 nM
IC50 (curve of first compound, second compound 0.3 µM): < 3.16 nM
SMILES: O=C(c1ccc(F)c(F)c1Nc1ccc(I)cc1F)N1CC(O)([C@@H]2CCCCN2)C1 + CCn1c(-c2cc(N3CCN(C)CC3)cnc2C(C)OC)c2c3cc(ccc31)-c1csc(n1)CC(NC(=O)C1CC1C)C(=O)N1CCCC(N1)C(=O)OCC(C)(C)C2
viability, T/C (second compound 0.000949 µM, first compound 0.00316 µM): 30.9%
viability, T/C (second compound 0.000949 µM, first compound 0.01 µM): 27.3%
viability, T/C (second compound 0.000949 µM, first compound 0.0316 µM): 21.8%
viability, T/C (second compound 0.000949 µM, first compound 0.1 µM): 20.4%
viability, T/C (second compound 0.000949 µM, first compound 0.316 µM): 15%
viability, T/C (second compound 0.000949 µM, first compound 1 µM): 14.4%
viability, T/C (second compound 0.003 µM, first compound 0.00316 µM): 22.9%
viability, T/C (second compound 0.003 µM, first compound 0.01 µM): 19.1%
viability, T/C (second compound 0.003 µM, first compound 0.0316 µM): 16.2%
viability, T/C (second compound 0.003 µM, first compound 0.1 µM): 13.3%
viability, T/C (second compound 0.003 µM, first compound 0.316 µM): 13.4%
viability, T/C (second compound 0.003 µM, first compound 1 µM): 15.1%
viability, T/C (second compound 0.00949 µM, first compound 0.00316 µM): 16%
viability, T/C (second compound 0.00949 µM, first compound 0.01 µM): 14.8%
viability, T/C (second compound 0.00949 µM, first compound 0.0316 µM): 14.5%
viability, T/C (second compound 0.00949 µM, first compound 0.1 µM): 11.9%
viability, T/C (second compound 0.00949 µM, first compound 0.316 µM): 11.9%
viability, T/C (second compound 0.00949 µM, first compound 1 µM): 13.6%
viability, T/C (second compound 0.03 µM, first compound 0.00316 µM): 14.3%
viability, T/C (second compound 0.03 µM, first compound 0.01 µM): 13.4%
viability, T/C (second compound 0.03 µM, first compound 0.0316 µM): 13.2%
viability, T/C (second compound 0.03 µM, first compound 0.1 µM): 13.8%
viability, T/C (second compound 0.03 µM, first compound 0.316 µM): 13.9%
viability, T/C (second compound 0.03 µM, first compound 1 µM): 14.9%
viability, T/C (second compound 0.0949 µM, first compound 0.00316 µM): 15.2%
viability, T/C (second compound 0.0949 µM, first compound 0.01 µM): 16%
viability, T/C (second compound 0.0949 µM, first compound 0.0316 µM): 13.4%
viability, T/C (second compound 0.0949 µM, first compound 0.1 µM): 13.8%
viability, T/C (second compound 0.0949 µM, first compound 0.316 µM): 14.5%
viability, T/C (second compound 0.0949 µM, first compound 1 µM): 15.3%
viability, T/C (second compound 0.3 µM, first compound 0.00316 µM): 16.7%
viability, T/C (second compound 0.3 µM, first compound 0.01 µM): 14.9%
viability, T/C (second compound 0.3 µM, first compound 0.0316 µM): 15%
viability, T/C (second compound 0.3 µM, first compound 0.1 µM): 15.1%
viability, T/C (second compound 0.3 µM, first compound 0.316 µM): 15.7%
viability, T/C (second compound 0.3 µM, first compound 1 µM): 15.6%

IC50 (curve of compound): > 300 nM
SMILES: CC1(C)CCC(Nc2ncc(C(F)(F)F)c(-c3c[nH]c4c(P(C)(C)=O)c(C#N)ccc34)n2)CN1 (stereo not drawn)
viability, T/C (compound 0.003 µM): 93% [middle of 4 runs]
viability, T/C (compound 0.00949 µM): 78.1% [middle of 4 runs]
viability, T/C (compound 0.03 µM): 73.1% [middle of 4 runs]
viability, T/C (compound 0.0949 µM): 67.2% [middle of 4 runs]
viability, T/C (compound 0.3 µM): 69.9% [middle of 4 runs]
